{
  "source": "the supplement of paper PMC10307832",
  "experiment_in_all_cases": "relative viability (nuclei count vs DMSO), 5 days (fraction); higher = more cells survive",
  "key": {"Decitabine + Bortezomib": {"compound": "Nc1ncn([C@H]2C[C@H](O)[C@@H](CO)O2)c(=O)n1 [Decitabine] + CC(C)C[C@H](NC(=O)[C@H](Cc1ccccc1)NC(=O)c1cnccn1)B(O)O [Bortezomib] (partner 0.002 µM)", "summary_of_the_method": "(§1)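 The day after seeding in 1536-well plates, lung cancer cell lines were treated by pin tool with a single drug, or with a fixed anchor-drug dose together with five library-drug doses (not always all listed) in √10 steps. After 5 days, a combined fix-and-stain solution (final 0.05% Triton X-100, 1% formaldehyde, 1 ug/ml Hoechst) was added. Nuclei counted on 4× images gave relative viability as treated counts over vehicle counts, reported as the median of duplicate plates.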"}, "Decitabine + Palbociclib": {"compound": "Nc1ncn([C@H]2C[C@H](O)[C@@H](CO)O2)c(=O)n1 [Decitabine] + CC(=O)c1c(C)c2cnc(Nc3ccc(N4CCNCC4)cn3)nc2n(C2CCCC2)c1=O [Palbociclib] (partner 0.5 µM)", "summary_of_the_method": "as §1"}, "Decitabine + Foretinib": {"compound": "Nc1ncn([C@H]2C[C@H](O)[C@@H](CO)O2)c(=O)n1 [Decitabine] + COc1cc2c(Oc3ccc(NC(=O)C4(C(=O)Nc5ccc(F)cc5)CC4)cc3F)ccnc2cc1OCCCN1CCOCC1 [Foretinib] (partner 0.25 µM)", "summary_of_the_method": "as §1"}, "[1]": {"compound": "O=C(C[C@H]1NCCC[C@@H]1O)Cn1cnc2cc(Br)c(Cl)cc2c1=O (racemic) [Halofuginone] + C[C@]1(O)C[C@@H](c2nc(-c3ccc4ccc(-c5ccccc5)nc4c3)c3c(N)nccn32)C1 [Linsitinib] (partner 1 µM)", "summary_of_the_method": "as §1"}},
  "data": [
    {"cell line": "UMC-11", "values": [
      {"measurement": "relative viability", "setting": "Decitabine + Bortezomib; first compound 0.04 µM", "value": 0.681},
      {"measurement": "relative viability", "setting": "Decitabine + Bortezomib; first compound 0.1265 µM", "value": 0.58},
      {"measurement": "relative viability", "setting": "Decitabine + Bortezomib; first compound 0.4 µM", "value": 0.31},
      {"measurement": "relative viability", "setting": "Decitabine + Bortezomib; first compound 1.265 µM", "value": 0.275},
      {"measurement": "relative viability", "setting": "Decitabine + Bortezomib; first compound 4 µM", "value": 0.252},
      {"measurement": "relative viability", "setting": "Decitabine + Palbociclib; first compound 0.04 µM", "value": 0.344},
      {"measurement": "relative viability", "setting": "Decitabine + Palbociclib; first compound 0.1265 µM", "value": 0.276},
      {"measurement": "relative viability", "setting": "Decitabine + Palbociclib; first compound 0.4 µM", "value": 0.313},
      {"measurement": "relative viability", "setting": "Decitabine + Palbociclib; first compound 1.265 µM", "value": 0.283},
      {"measurement": "relative viability", "setting": "Decitabine + Palbociclib; first compound 4 µM", "value": 0.285},
      {"measurement": "relative viability", "setting": "Decitabine + Foretinib; first compound 0.04 µM", "value": 0.906},
      {"measurement": "relative viability", "setting": "Decitabine + Foretinib; first compound 0.1265 µM", "value": 0.79},
      {"measurement": "relative viability", "setting": "Decitabine + Foretinib; first compound 0.4 µM", "value": 0.511},
      {"measurement": "relative viability", "setting": "Decitabine + Foretinib; first compound 1.265 µM", "value": 0.399},
      {"measurement": "relative viability", "setting": "Decitabine + Foretinib; first compound 4 µM", "value": 0.372},
      {"measurement": "relative viability", "setting": "[1]; first compound 0.001 µM", "value": 1.09},
      {"measurement": "relative viability", "setting": "[1]; first compound 0.003162 µM", "value": 0.99},
      {"measurement": "relative viability", "setting": "[1]; first compound 0.01 µM", "value": 1.03},
      {"measurement": "relative viability", "setting": "[1]; first compound 0.03162 µM", "value": 0.963},
      {"measurement": "relative viability", "setting": "[1]; first compound 0.1 µM", "value": 0.752}
    ]}
  ]
}
